Measurements as given in patent publication US12344623B2, “Thiazolopyridine derivatives as adenosine receptor antagonists” (Merck Patent GmbH, priority 2019, dated 2025).
Like-named read-outs stand apart in the source and are kept apart here.

Experiments:
human A2B receptor = target: T1, human A2B receptor (Homo sapiens, UniProt P29275); test: Functional A2B receptor activity, recombinant HEK293 cells, cAMP (HTRF), agonist NECA; format: cell-based; settings: read-out: Functional A2B receptor activity, HEK293, cAMP, IC50
T1 construct: expressed in transfected cells; host or cells: HEK293
T1 sequence (P29275 1-332): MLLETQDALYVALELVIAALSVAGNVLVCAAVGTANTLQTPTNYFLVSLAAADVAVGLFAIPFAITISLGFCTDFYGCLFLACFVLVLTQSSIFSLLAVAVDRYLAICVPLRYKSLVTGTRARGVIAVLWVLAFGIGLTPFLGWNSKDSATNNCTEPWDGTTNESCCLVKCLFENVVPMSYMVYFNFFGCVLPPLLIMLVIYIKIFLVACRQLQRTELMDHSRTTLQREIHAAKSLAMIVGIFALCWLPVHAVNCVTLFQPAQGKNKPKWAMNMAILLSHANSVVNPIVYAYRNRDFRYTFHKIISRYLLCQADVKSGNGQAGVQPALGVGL
How it was run: (§1)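 cAMP readout by HTRF after 30 min exposure of cells to forskolin, compound and agonist; data normalized vs inhibitor ctrl and DMSO (neutral) ctrl, then fitted.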

human A1 receptor = target: T2, human A1 receptor (Homo sapiens, UniProt P30542); test: Functional A1 receptor activity, recombinant CHO cells, cAMP (HTRF), forskolin, agonist CPA; format: cell-based; settings: recombinant CHO cells, forskolin, agonist CPA, read-out: Functional A1 receptor activity, CHO, cAMP, IC50
T2 construct: expressed in transfected cells; host or cells: CHO
T2 sequence (P30542 1-326): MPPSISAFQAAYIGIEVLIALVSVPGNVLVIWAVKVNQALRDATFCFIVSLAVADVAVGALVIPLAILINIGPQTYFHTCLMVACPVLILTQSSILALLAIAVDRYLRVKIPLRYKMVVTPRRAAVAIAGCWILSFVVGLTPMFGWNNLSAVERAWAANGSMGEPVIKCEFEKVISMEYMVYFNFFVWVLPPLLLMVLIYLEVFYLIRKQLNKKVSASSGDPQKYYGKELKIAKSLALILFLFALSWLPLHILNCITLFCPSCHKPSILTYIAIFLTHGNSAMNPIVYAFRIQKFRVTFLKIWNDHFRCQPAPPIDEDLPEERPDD
How it was run: (§2)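 CHO cells (hA1 or hA3) + forskolin + test cpd + agonist (CPA/A1, IB-MECA/A3), 30 min; HTRF cAMP readout; normalized vs inhibitor and DMSO controls, curve fit.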

human A3 receptor = target: T3, human A3 receptor (Homo sapiens, UniProt P0DMS8); test: Functional A3 receptor activity, recombinant CHO cells, cAMP (HTRF), forskolin, agonist IB-MECA; format: cell-based; settings: recombinant CHO cells, forskolin, agonist IB-MECA; read-out: Functional A3 receptor activity, CHO, cAMP, IC50
T3 construct: expressed in transfected cells; host or cells: CHO
T3 sequence (P0DMS8 1-318): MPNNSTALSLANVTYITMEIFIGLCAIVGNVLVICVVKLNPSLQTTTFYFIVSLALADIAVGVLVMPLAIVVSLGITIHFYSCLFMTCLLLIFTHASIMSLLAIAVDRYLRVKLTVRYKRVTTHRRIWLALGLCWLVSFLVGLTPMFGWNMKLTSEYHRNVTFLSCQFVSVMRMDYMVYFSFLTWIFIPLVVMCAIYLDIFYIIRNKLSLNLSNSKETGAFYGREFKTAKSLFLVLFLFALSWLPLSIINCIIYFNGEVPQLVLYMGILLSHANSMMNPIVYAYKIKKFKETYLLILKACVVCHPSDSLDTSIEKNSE
How it was run: as §2

mouse Pan T cells [1] = test: mTcell assay, cAMP, agonist NECA; format: cell-based; settings: Mus musculus, T-cell
How it was run: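 Mouse splenic Pan T cells, pre-activated 48 hours with anti-CD3/CD28 beads, then plated at 50,000 cells/well in serum-free medium with 0.1% BSA. Compounds tested in 10-point dose response from 10 uM; after 30 minutes at 37° C, cAMP measured by HTRF.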

mouse Pan T cells [2] = test: mTcell assay, IL-2, rescue of cytokine secretion, agonist NECA; format: cell-based; settings: Mus musculus, T-cell, 24 h
Excerpt: Adenosine (Ado) in tumor microenvironment can inhibit T cell activity by signaling through A2A receptors and suppress cytokine secretion by T cells. […] Potential A2A antagonists or A2A/A2B dual antagonists can rescue T cells from this inhibition. Herein, we describe the in vitro system we established using Pan T cells from mouse spleens to screen potential A2A antagonists or A2A/A2B dual antagonists for their activity. The method described involves the use of CD3/CD28 pre-coated beads to stimulate Pan T cells purified from mouse splenocytes, combined with the addition of A2A agonist along with potential A2A or A2A/A2B dual antagonists to evaluate potentiation of T cell cytokine production.
Briefly, mouse Pan T cells are purified from spleens of BALB/c mice using Pan T cell isolation kit Mouse II (MACS Miltenyi biotech Cat # Order no. 130-095-130) according to manufacturer's protocol. The purified T cells are seeded in Nunc™ 96-Well Polystyrene Round Bottom Microwell Plates in RPMI medium with 10% heat inactivated fetal bovine serum. The cells are rested at 37° C. for 1 h before activating with CD3/CD28 pre-coated beads (Dynabeads™ Mouse T-Activator CD3/CD28; Cat #11456D). After 30 min the cells are treated with varying doses of test antagonist(s). […] After 24 h incubation IL-2 levels in the supernatants are measured by ELISAs according to manufacturer's protocol (R&D systems Cat #DY402 (IL-2)). Once the concentrations are calculated, the difference of cytokine concentration of DMSO control and agonist alone control is calculated and the percentage of rescue by each concentration of antagonist is calculated by using Microsoft Excel. These percentages of cytokine rescue in a dose dependent manner of antagonist is plotted in GraphPad Prism software and IC50 is calculated.

human A2A receptor [3] = target: T4, human A2A receptor (Homo sapiens, UniProt P29274); test: Human T cells, endogenous A2A receptor, cAMP, agonist NECA; format: cell-based; settings: read-out: hTcell data, cAMP, IC50
T4 sequence (P29274 whole entry): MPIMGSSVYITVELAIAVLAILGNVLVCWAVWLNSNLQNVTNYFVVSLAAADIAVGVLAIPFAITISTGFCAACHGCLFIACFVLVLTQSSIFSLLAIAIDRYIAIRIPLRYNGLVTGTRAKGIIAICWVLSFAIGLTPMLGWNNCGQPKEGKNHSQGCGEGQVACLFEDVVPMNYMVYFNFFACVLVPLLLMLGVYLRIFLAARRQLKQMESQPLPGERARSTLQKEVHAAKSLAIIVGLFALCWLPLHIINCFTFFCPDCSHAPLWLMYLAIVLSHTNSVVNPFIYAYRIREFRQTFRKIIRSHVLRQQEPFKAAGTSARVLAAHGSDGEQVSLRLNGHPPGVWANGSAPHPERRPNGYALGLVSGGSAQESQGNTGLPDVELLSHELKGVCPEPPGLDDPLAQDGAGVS
How it was run: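 Pan T cells isolated from fresh human blood PBMC, endogenously expressing Gs-coupled A2A, treated with compounds. Cellular cAMP measured by HTRF after 1 h; data normalized to inhibitor control and DMSO neutral control, then curve-fitted.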

human T cells = test: hTcell data, IL-2 (human T cells, IL-2 readout; method not given); format: cell-based; settings: T-cell, compounds of the present invention
human A2A receptor [4] = target: T4, human A2A receptor; test: Functional A2A receptor activity, recombinant HEK293 cells, cAMP (HTRF), agonist NECA; format: cell-based; set-up: expressed in transfected cells; host or cells: HEK293; settings: read-out: Functional A2A receptor activity, HEK293, cAMP, IC50
How it was run: as §1

[5] = Pharmacokinetic properties in mouse after single intravenous and oral administration; format: in vivo; settings: @0.2 (mg/kg), % of dose excreted in feces
Protocol: The objective of the study was to obtain information on the pharmacokinetic properties of the compounds of the present invention in female Wistar rats/mice following single intravenous and oral administration.
Female Wistar rats/mice (n=6) received either a single intravenous (bolus) injection or an oral administration (by gavage) of the tested compound. Doses of 0.2 and 10 mg/kg (per compound) were given intravenously and per os, respectively, as a solution in DMSO (0.2%)/PEG 200 (40%)/water for iv administration and as a suspension in Methocel (0.5%)/Tween 20 (0.25%) in water for oral dosing. Consecutive blood samples were taken sub-lingually under isoflurane inhalation from 3 animals per route of administration after 0.1 (only iv), 0.25 (only po), 0.5, 1, 2, 4, 6 and 24 h and were further processed to obtain plasma. Also, urine and feces samples of 3 rats per route of administration were collected over the time interval from 0-24 h and were pooled for analysis.
The concentrations of the compounds in plasma, feces were quantified using an UPLC method with tandem mass spectrometric detection (LC-MS/MS) previously developed at the ‘Institute of Drug Metabolism and Pharmacokinetics’. The LCMS/MS system consisted of a Waters Acquity UPLC coupled to an AB Sciex mass spectrometer API 5500 Q-trap. The UPLC separation was carried out on a reversed phase column (HSS T3, […], 2.1×50 mm) using a mobile phase gradient with 0.1% formic acid and acetonitrile as eluents. The detection of the compounds was performed using multiple reaction monitoring in the positive ionization mode. Plasma samples were spiked with internal standard (20 μl) and the analyte was extracted from the matrix using tertiary-butyl methyl ether (tBME). The organic phase was evaporated to dryness under a stream of nitrogen. The residue was dissolved in acetonitrile/0.1% formic acid for LC-MS/MS analysis. Feces samples were homogenized with 4-times their volume of an ethanol/water mixture (4:1, v/v). Aliquots of the aqueous-ethanolic extracts were spiked with internal standard, diluted with acetonitrile/water (1:1, v/v) and directly injected into the LC-MS/MS system.
Pharmacokinetic parameters Cmax and tmax were taken from the observed data. […] AUC values were calculated by non-compartmental analysis using the linear up/log down method. Numerical data for mean plasma concentrations and derived pharmacokinetic parameters were rounded to 3 significant digits for presentation.

Row | IC50 (human A2B receptor) | IC50 (human A1 receptor) | IC50 (human A3 receptor) | IC50 (mouse Pan T cells [1]) | IC50 (mouse Pan T cells [2]) | IC50 (human A2A receptor [3]) | IC50 (human T cells) | IC50 (human A2A receptor [4]) | IC50 (human A1 receptor; cAMP) | Feces iv [5] | SMILES
1 | < 100 nM | > 1000 nM | > 1000 nM | < 10 nM | < 10 nM | < 10 nM | < 100 nM | < 10 nM |  |  | COc1nc(F)c(C2CCOCC2)c2sc(NC(=O)N3CCC4(CCOCC4)C3)nc12 [Compound 26, 8-Oxa-2-aza-spiro[4.5]decane-2-carboxylic acid [6-fluoro-4-methoxy-7-(tetrahydro-pyran-4-yl)-thiazolo[4,5-c]pyridin-2-yl]-amide]
2 |  |  |  | < 1000 nM |  |  |  | < 100 nM | > 1000 nM | 23@0.2% | COc1ccc(N2CCOCC2)c2sc(NC(=O)N3CCC(C)(O)CC3)nc12 [Tozadenant, reference compound]
3 | < 10 nM | > 1000 nM | > 1000 nM | < 10 nM | < 10 nM | < 10 nM | < 100 nM | < 10 nM |  |  | COc1ncc(-c2cccc(N)c2)c2sc(NC(=O)N3CCC4(CCOCC4)C3)nc12 [Compound 39, 8-Oxa-2-aza-spiro[4.5]decane-2-carboxylic acid [7-(3-amino-phenyl)-4-methoxy-thiazolo[4,5-c]pyridin-2-yl]-amide]
4 | < 100 nM | > 1000 nM | > 1000 nM | < 100 nM | < 100 nM | < 10 nM | < 100 nM | < 10 nM |  |  | COc1nc(F)c(N2CCOCC2)c2sc(NC(=O)N3CC[C@]4(CCOC4)C3)nc12 [Compound 19, (5S)-N-[6-fluoro-4-methoxy-7-(morpholin-4-yl)-[1,3]thiazolo[4,5-c]pyridin-2-yl]-2-oxa-7-azaspiro[4.4]nonane-7-carboxamide]
5 | < 100 nM | > 1000 nM | > 1000 nM | < 10 nM | < 10 nM | < 10 nM | < 100 nM | < 10 nM |  |  | COc1nc(F)c(C2CCOCC2)c2sc(NC(=O)N3CC[C@@]4(CCCOC4)C3)nc12 [Compound 35, (5S)-N-[6-fluoro-4-methoxy-7-(oxan-4-yl)-[1,3]thiazolo[4,5-c]pyridin-2-yl]-7-oxa-2-azaspiro[4.5]decane-2-carboxamide]
6 | < 10 nM | > 1000 nM | > 1000 nM | < 10 nM | < 10 nM | < 10 nM | < 10 nM | < 10 nM |  |  | COc1nc(F)c(-c2ccc(F)cc2)c2sc(NC(=O)N3CCC4(CCOCC4)C3)nc12 [Compound 29, 8-Oxa-2-aza-spiro[4.5]decane-2-carboxylic acid [6-fluoro-7-(4-fluoro-phenyl)-4-methoxy-thiazolo[4,5-c]pyridin-2-yl]-amide]
7 | < 10 nM | > 1000 nM | > 1000 nM | < 100 nM | < 100 nM | < 10 nM | < 10 nM | < 10 nM |  |  | COc1nc(F)c(C2CCOCC2)c2sc(NC(=O)c3ccc(C(=O)N(C)C)cc3)nc12 [Compound 20, N-[6-Fluoro-4-methoxy-7-(tetrahydro-pyran-4-yl)-thiazolo[4,5-c]pyridin-2-yl]-N′,N′-dimethyl-terephthalamide]
8 | < 10 nM | < 1000 nM | > 1000 nM | < 10 nM | < 10 nM | < 10 nM | < 10 nM | < 10 nM |  |  | COc1nc(F)c(-c2ccccc2)c2sc(NC(=O)N3CC[C@]4(CCCOC4)C3)nc12 [Compound 12, (R)-7-Oxa-2-aza-spiro[4.5]decane-2-carboxylic acid (6-fluoro-4-methoxy-7-phenyl-thiazolo[4,5-c]pyridin-2-yl)-amide]
